This test relates to Rats. The test can be described thus: Blood pressure measurements after i.v. injections. The format is in vivo. Conditions: in the same animals, dose not stated.

For `CNC[C@H](O)c1cccc(O)c1` [phenylephrine], the arterial pressure result is listed as “clear increase in pressure”.
